Measurements from patent US20230135524A1, “ARYL HYDANTOIN HETEROCYCLES AND METHODS OF USE” (The United States of America,as represented by the …, priority 2020, published 2023).

Tests used:
[1] = tested on: LAPC4; assay: IncuCyte % confluence cell growth inhibition, LAPC4; assay type: cell-based; details: Homo sapiens, LAPC4, read-out: IC50 values (μM), LAPC4
Protocol: (§1) Images were then analyzed to discern the % confluence of cells in each well. IC50 values were calculated from dose response curves of the % cell growth inhibition relative to DMSO control at the same time point per each cell line.

[2] = molecular target: T1, Aldosterone Receptor (UniProt P22199); assay: Radioligand competition binding, [3H] aldosterone; details: competition with [3H] aldosterone, 20 hours
T1 sequence (P22199 1-981): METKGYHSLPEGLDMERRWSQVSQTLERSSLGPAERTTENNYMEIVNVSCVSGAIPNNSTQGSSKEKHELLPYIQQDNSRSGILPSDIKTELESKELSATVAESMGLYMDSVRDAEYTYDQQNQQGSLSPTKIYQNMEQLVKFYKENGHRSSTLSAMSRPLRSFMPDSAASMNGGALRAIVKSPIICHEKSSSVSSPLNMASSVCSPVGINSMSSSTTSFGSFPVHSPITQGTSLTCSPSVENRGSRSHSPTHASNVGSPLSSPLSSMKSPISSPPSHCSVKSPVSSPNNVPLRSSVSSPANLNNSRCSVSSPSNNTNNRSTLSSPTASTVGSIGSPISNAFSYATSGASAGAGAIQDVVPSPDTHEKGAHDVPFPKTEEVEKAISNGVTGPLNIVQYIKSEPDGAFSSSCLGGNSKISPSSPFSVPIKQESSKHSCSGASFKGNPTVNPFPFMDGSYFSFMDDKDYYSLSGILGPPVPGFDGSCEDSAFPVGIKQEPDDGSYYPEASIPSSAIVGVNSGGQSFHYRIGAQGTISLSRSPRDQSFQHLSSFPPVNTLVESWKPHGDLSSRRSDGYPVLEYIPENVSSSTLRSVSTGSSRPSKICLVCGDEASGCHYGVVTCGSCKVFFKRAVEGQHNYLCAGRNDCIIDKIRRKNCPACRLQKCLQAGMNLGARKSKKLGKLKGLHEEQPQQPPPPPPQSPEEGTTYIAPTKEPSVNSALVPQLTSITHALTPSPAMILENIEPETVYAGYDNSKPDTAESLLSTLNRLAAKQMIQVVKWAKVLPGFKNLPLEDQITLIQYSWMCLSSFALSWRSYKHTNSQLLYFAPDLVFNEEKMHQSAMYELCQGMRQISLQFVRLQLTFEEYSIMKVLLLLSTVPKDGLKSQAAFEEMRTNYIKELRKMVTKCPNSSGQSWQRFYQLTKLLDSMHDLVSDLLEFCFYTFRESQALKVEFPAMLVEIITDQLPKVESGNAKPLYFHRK
Protocol: (§2) Binding assays were performed via competition with radioactive ligands across a range of dose of compounds 15a and 19d. For aldosterone binding, the aldosterone receptor was incubated for 20 hours with […] aldosterone. Similarly, the androgen receptor was co-incubated with 0.5 nM of [^3H] methyltrienolone, the estrogen receptor alpha was co-incubated with 0.5 nM [^3H] estradiol, the glucocorticoid receptor with 0.5 nM [^3H] dexamethasone, and the progesterone receptor with 0.5 nM [^3H] progesterone as parent ligands.

[3] = tested on: LNCaP ARin vivo; assay: IncuCyte % confluence cell growth inhibition, LNCaP ARin vivo; assay type: cell-based; details: Homo sapiens, read-out: IC50 values (μM), LNCaP ARin vivo
Protocol: as §1

[4] = molecular target: Estrogen Receptor alpha (Homo sapiens, UniProt P03372); assay: Radioligand competition binding, [3H] estradiol; details: competition with 0.5 nM [3H] estradiol
Estrogen Receptor alpha, sequence (P03372 whole entry): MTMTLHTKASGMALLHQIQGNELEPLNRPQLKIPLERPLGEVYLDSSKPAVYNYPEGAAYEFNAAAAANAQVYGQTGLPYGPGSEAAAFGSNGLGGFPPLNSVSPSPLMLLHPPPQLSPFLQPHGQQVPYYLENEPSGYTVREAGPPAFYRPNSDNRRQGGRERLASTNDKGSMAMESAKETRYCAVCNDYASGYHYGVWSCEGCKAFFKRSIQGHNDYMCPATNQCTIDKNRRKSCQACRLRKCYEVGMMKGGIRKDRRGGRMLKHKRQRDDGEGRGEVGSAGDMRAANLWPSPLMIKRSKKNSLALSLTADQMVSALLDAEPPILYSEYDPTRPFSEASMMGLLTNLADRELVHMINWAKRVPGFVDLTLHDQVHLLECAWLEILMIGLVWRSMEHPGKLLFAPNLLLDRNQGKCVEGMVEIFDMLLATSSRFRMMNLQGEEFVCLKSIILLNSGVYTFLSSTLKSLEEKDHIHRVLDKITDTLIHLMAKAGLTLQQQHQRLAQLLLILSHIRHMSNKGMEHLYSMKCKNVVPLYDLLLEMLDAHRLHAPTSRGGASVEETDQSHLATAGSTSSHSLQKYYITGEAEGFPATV
Protocol: as §2

[5] = tested on: LNCaP; assay: IncuCyte % confluence cell growth inhibition, LNCaP; assay type: cell-based; details: Homo sapiens, read-out: IC50 values (μM), LNCaP
Protocol: as §1

[6] = molecular target: T2, Glucocorticoid Receptor (Homo sapiens, UniProt P04150); assay: Radioligand competition binding, [3H] dexamethasone; details: competition with 0.5 nM [3H] dexamethasone
T2 sequence (P04150 1-777): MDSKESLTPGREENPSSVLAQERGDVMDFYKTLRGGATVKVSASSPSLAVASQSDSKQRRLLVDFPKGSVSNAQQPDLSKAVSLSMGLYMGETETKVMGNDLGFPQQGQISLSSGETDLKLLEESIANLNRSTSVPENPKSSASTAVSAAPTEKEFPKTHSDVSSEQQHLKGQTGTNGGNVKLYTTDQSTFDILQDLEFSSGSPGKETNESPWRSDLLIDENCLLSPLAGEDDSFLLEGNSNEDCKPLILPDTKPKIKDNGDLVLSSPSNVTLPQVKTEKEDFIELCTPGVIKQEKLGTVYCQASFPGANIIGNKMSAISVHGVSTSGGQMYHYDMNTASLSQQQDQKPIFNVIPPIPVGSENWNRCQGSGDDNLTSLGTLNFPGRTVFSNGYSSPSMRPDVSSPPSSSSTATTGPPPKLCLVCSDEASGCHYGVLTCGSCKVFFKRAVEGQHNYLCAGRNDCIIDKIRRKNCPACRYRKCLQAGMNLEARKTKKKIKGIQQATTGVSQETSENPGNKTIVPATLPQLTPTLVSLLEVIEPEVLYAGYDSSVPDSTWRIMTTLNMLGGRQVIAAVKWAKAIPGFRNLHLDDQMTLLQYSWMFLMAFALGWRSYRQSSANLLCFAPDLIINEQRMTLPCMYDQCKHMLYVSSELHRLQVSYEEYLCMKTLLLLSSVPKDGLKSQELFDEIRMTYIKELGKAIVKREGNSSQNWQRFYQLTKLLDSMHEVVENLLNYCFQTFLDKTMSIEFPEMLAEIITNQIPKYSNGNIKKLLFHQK
Protocol: as §2

[7] = tested on: LNCaP ARF876L; assay: IncuCyte % confluence cell growth inhibition, LNCaP ARF876L; assay type: cell-based; details: Homo sapiens, AR-positive, AR mutation F876L, % cell growth inhibition relative to DMSO
Protocol: as §1

[8] = tested on: LNCAP AR; assay: IncuCyte % confluence cell growth inhibition, LNCAP AR; assay type: cell-based; details: read-out: IC50 values (μM), LNCAP AR
Protocol: as §1

SMILES | IC50 [1] | IC50 [2] | IC50 [3] | IC50 [4] | IC50 [5] | IC50 [6] | IC50 [7] | IC50 [8]
CC1(C)C(=O)N(c2ccc(C#N)c(C(F)(F)F)c2)C(=S)N1Cc1ccc(-c2c[nH]nn2)cc1 [Compound 15a, 4-(3-(4-(1H-1,2,3-triazol-4-yl)benzyl)-4,4-dimethyl-5-oxo-2-thioxoimidazolidin-1-yl)-2-(trifluoromethyl)benzonitrile] | 13.3 µM | > 10000 nM | 18.5 µM | > 10000 nM | 30.5 µM | > 10000 nM | 21 µM | 17 µM
CC1(C)C(=O)N(c2ccc(C#N)c(C(F)(F)F)c2)C(=S)N1Cc1ccc(-c2c[nH]nn2)cc1F [Compound 19d, 4-(3-(2-Fluoro-4-(1H-1,2,3-triazol-4-yl)benzyl)-4,4-dimethyl-5-oxo-2-thioxoimidazolidin-1-yl)-2-(trifluoromethyl)benzonitrile] | 16.3 µM | > 10000 nM | 28.2 µM | > 10000 nM | 35.7 µM | > 10000 nM | 22.3 µM | 28.2 µM
